Data on 3 compounds can be found in PMC9897788, “Design, synthesis and cytotoxic evaluation of novel bis-thiazole derivatives as preferential Pim1 kinase inhibitors with in vivo and in silico study” (Journal of Enzyme Inhibition and Medicinal Chemistry, 2023).

A short description of data set [1]: Solubility in DMSO (NMR observation). It counts as physicochemical. The note with it: noticed from weak NMR signals.
The test system of data set [2] is breast cancer T47D cell line. Nature of the data set: Breast T47D cancer cell cycle flowcytometry. The format is cell-based. As for the experimental part: After treatment with test compounds for 48 h and paclitaxel (1 µM) for 48 h as positive control, cells (10^5 cells) are collected by trypsinization and washed twice with ice-cold PBS (pH 7.4). Cells are re-suspended in two millilitres of 60% ice-cold ethanol and incubated at 4 °C for 1 h for fixation. Fixed cells are washed twice again with PBS (pH 7.4) and re-suspended in 1 ml of PBS containing 50 µg/mL RNAase A and 10 µg/mL propidium iodide (PI). After 20 min of incubation in dark at 37 °C, cells are analysed for DNA contents using flow cytometry analysis using FL2 (λex/em 535/617 nm) signal detector (ACEA Novocyte™ flowcytometer, ACEA Biosciences Inc., San Diego, CA). For each sample, 12,000 events are acquired. Cell cycle distribution is calculated using ACEA NovoExpress™ software (ACEA Biosciences Inc., San Diego, CA)[36].

For the compound `Cc1nc(Nc2cccc(Nc3nc(C)c(N=Nc4ccccc4)s3)c2)sc1N=Nc1ccccc1` [5a, N^1,N^3-bis(4-methyl-5-(phenyldiazenyl)thiazol-2-yl)benzene-1,3-diamine], the “solubility in DMSO” value in data set [1] is “poor solubility in DMSO”.
Regarding `Fc1ccc(-c2cs/c(=N\c3ccccc3)n2-c2cccc(-n3c(-c4ccc(F)cc4)cs/c3=N\c3ccccc3)c2)cc1` [8b, N,N’-(3,3’-(1,3-phenylene)bis(4–(4-fluorophenyl)thiazole-3(3H)-yl-2(3H)-ylidene))dianiline], in data set [2] (48 h incubation), the “Percentage of breast T47D cells, G0/G1 Phase” value was 51.7%; the “Percentage of breast T47D cells, G2 Phase” value is 25.9%; the “Percentage of breast T47D cells, Pre G1 Phase” value is 1.9%; the “Percentage of breast T47D cells, S Phase” value was 26.5%. For the same compound, the “S phase cells higher than the control by” value in data set [2] (relative to untreated control) amounted to 77.8%.
With `CC(=O)c1sc(Nc2cccc(Nc3nc(C)c(C(C)=O)s3)c2)nc1C` [3b, 1,1’-(2,2’-(1,3-Phenylenebis(azanediyl))bis(4-methylthiazole-5,2-diyl))diethanone], in data set [2] (48 h incubation), the “Percentage of breast T47D cells, G0/G1 Phase” value was determined as 66.5%; the “Percentage of breast T47D cells, Pre G1 Phase” value is on record as 2.6%; the “Percentage of breast T47D cells, S Phase” value was 18.7%. For the same compound, in data set [2] (relative to untreated control), the “G2 phase cells lower than the control by” value came to 58% and the “pre-G1 phase cells higher than the untreated control by” value worked out at 78%.
